This passage reports Ki results from patent publication US9469615B2, “Quinoxalines and AZA-quinoxalines as CRTH2 receptor modulators” (Merck Sharp & Dohme Corp., priority 2010, dated 2016).

The target in one assay is T1, hCRTH2 (Homo sapiens, UniProt Q9Y5Y4).
T1 construct: expressed in transfected cells; host or cells: HEK (human embryonic kidney) cells expressing hCRTH2; membrane preparation
T1 sequence (Q9Y5Y4 1-395): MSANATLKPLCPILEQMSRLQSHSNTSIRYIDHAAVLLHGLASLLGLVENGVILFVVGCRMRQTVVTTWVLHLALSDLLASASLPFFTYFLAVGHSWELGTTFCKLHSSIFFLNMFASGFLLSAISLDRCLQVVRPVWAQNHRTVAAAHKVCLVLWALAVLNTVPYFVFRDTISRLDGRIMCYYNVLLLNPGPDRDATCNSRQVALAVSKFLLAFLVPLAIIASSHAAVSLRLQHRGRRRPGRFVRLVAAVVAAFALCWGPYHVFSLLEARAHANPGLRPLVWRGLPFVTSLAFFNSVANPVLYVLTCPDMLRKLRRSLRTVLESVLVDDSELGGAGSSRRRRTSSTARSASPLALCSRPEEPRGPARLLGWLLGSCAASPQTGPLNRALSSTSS
The experiment in a line: Radioligand binding assay ([3H]PGD2 competition, HEK-hCRTH2 membranes). The note with it: [3H]PGD2 binding, rated A-E (Table A). In outline: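 Filter-bound radioactivity was counted by scintillation after 60 min incubations at room temperature. Membranes (8-20 μg) from HEK cells expressing hCRTH2 competed test ligands against 3.0 nM [3H]PGD2 in Tris-HCl pH 7.4 buffer with EDTA and 2 mM MnCl2; 10 μM PGD2 set non-specific binding.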
For orientation: Ki means the equilibrium dissociation constant of an inhibitor or competing ligand from its target. High values mean a looser hold on the target, low ones a stronger hold on the target. In turn, `COc1ccc(-c2nc3ccc(C(=O)N4CCC(c5ccccc5)CC4)cc3nc2CCCCC(=O)O)c(Cl)c1` [26W, 3-(2-chloro-4-methoxyphenyl)-7-[(4-phenyl-1-piperidinyl)carbonyl]-2-quinoxalinepentanoic acid] came in with a Ki of 0.1 to 2 nM.

In the case of `CS(=O)(=O)c1ccc(-c2nc3ccc(C(=O)N4CCC(c5ccccc5)CC4)cc3nc2CCCCC(=O)O)cc1` [26X], the Ki was in the range of 20.1 to 200 nM. Compound `O=C(O)CCCCc1nc2cc(C(=O)N3CCC(c4ccccc4)CC3)ccc2nc1-c1ccc(Cl)cc1Cl` [26Y, 3-(2,4-dichlorophenyl)-7-[(4-phenyl-1-piperidinyl)carbonyl]-2-quinoxalinepentanoic acid] displayed a Ki of 0.1 to 2 nM.

`COc1ccc(-c2nc3ccc(C(=O)N4CCC(c5ccccc5)CC4)cc3nc2CCCCC(=O)O)c(OC)c1` [26Z, 3-(2,4-dimethoxyphenyl)-7-[(4-phenyl-1-piperidinyl)carbonyl]-2-quinoxalinepentanoic acid] gave a Ki of 0.1 to 2 nM. Still for that read-out and setting: the figure for `O=C(O)CCCCc1nc2cc(C(=O)N3CCC(c4ccccc4)C3)ccc2nc1-c1cc(F)cc(F)c1` (stereo not drawn) [26i, 3-(3,5-difluorophenyl)-7-[(3-phenyl-1-pyrrolidinyl)carbonyl]-2-quinoxalinepentanoic acid] is 2.1 to 20 nM. On to `COc1ccc(-c2nc3ccc(C(=O)N4CCC(c5ccccc5)CC4)cc3nc2CCCCC(=O)O)cc1` [26o, 3-(4-methoxyphenyl)-7-[(4-phenyl-1-piperidinyl)carbonyl]-2-quinoxalinepentanoic acid], for which the inhibition constant (Ki) lay in the range of 0.1 to 2 nM. Same read-out and setting: then `C[C@@H](NC(=O)c1ccc2nc(-c3ccc(Cl)cc3)c(CC3CC(C(=O)O)C3)nc2c1)c1ccc(F)cc1` (stereo partly drawn) [30E], with 2.1 to 20 nM. Same read-out and setting: then `O=C(O)CCCCc1nc2cc(C(=O)N3CC(c4nc5ccccc5o4)C3)ccc2nc1-c1ccccc1` [31C], with 2.1 to 20 nM; and `C[C@@H](NC(=O)c1ccc2nc(-c3ccccc3)c(NCCCC(=O)O)nc2c1)c1ccc(F)cc1` [44D, (R)-4-((7-((1-(4-fluorophenyl)ethyl)carbamoyl)-3-phenylquinoxalin-2-yl)amino)butanoic acid], with 2.1 to 20 nM. On to `O=C(O)CCCNc1nc2cc(C(=O)N[C@@H]3CCCc4cc(F)ccc43)ccc2nc1-c1ccccc1` [44E, (R)-4-((7-((6-fluoro-1,2,3,4-tetrahydronaphthalen-1-yl)carbamoyl)-3-phenylquinoxalin-2-yl)amino)butanoic acid], for which the Ki lay within 2.1 to 20 nM. Same read-out and setting: the figure for `O=C(O)CCCNc1nc2cc(C(=O)N3CCN(c4ccccc4)CC3)ccc2nc1-c1ccccc1` [44F, 4-((3-phenyl-7-(4-phenylpiperazine-1-carbonyl)quinoxalin-2-yl)amino)butanoic acid] is 2.1 to 20 nM; for `C[C@@H](NC(=O)c1ccc2nc(-c3ccccc3)c(NCCCC(=O)O)nc2c1)c1ccc(C#N)cc1` [44G] it is 20.1 to 200 nM. On the same count and under the same terms, the figure for `O=C(O)CCCNc1nc2cc(C(=O)N3CCN(c4ccc(F)cc4)CC3)ccc2nc1-c1ccccc1` [44H, 4-((7-(4-(4-fluorophenyl)piperazine-1-carbonyl)-3-phenylquinoxalin-2-yl)amino)butanoic acid] is 2.1 to 20 nM; for `O=C(O)CCCNc1nc2cc(C(=O)N3CCC(c4ccc(F)cc4)CC3)ccc2nc1-c1ccccc1` [44J, 4-((7-(4-(4-fluorophenyl)piperidine-1-carbonyl)-3-phenylquinoxalin-2-yl)amino)butanoic acid] it is 2.1 to 20 nM. `O=C(O)CCCNc1nc2cc(C(=O)N3CCC(c4ccc(Cl)cc4)CC3)ccc2nc1-c1ccccc1` [44K, 4-((7-(4-(4-chlorophenyl)piperidine-1-carbonyl)-3-phenylquinoxalin-2-yl)amino)butanoic acid] had a Ki of 0.1 to 2 nM. With `O=C(O)CCCNc1nc2cc(C(=O)N3CCN(c4ccc(Cl)cc4)CC3)ccc2nc1-c1ccccc1` [44L, 4-((7-(4-(4-chlorophenyl)piperazine-1-carbonyl)-3-phenylquinoxalin-2-yl)amino)butanoic acid], the Ki lay within 2.1 to 20 nM. Consider `O=C(O)CCCNc1nc2cc(C(=O)N3CC[C@H](c4ccccc4)C3)ccc2nc1-c1ccccc1` [44M, (R)-4-((3-phenyl-7-(3-phenylpyrrolidine-1-carbonyl)quinoxalin-2-yl)amino)butanoic acid], for which the Ki lay in the range of 2.1 to 20 nM. The same measure, in the same setting: then `C[C@@H]1CN(c2ccccc2)CCN1C(=O)c1ccc2nc(-c3ccccc3)c(NCCCC(=O)O)nc2c1` [44N, (R)-4-((7-(2-methyl-4-phenylpiperazine-1-carbonyl)-3-phenylquinoxalin-2-yl)amino)butanoic acid], with 2.1 to 20 nM. `O=C(O)CCCNc1nc2cc(C(=O)N[C@@H]3CCCc4ccccc43)ccc2nc1-c1ccccc1` [44i, (R)-4-((3-phenyl-7-((1,2,3,4-tetrahydronaphthalen-1-yl)carbamoyl)quinoxalin-2-yl)amino)butanoic acid] returned a Ki of 0.1 to 2 nM. The same measure, in the same setting: the figure for `O=C(O)CCCCc1nc2cc(C(=O)C3CC3)ccc2nc1-c1cccc(F)c1` [compound 3, 5-[7-(Cyclopropanecarbonyl)-3-(3-fluorophenyl)quinoxalin-2-yl]pentanoic Acid] is 2.1 to 20 nM; for `C[C@H](NC(=O)c1ccc2nc(-c3ccc(C(F)(F)F)cc3)c(CCCCC(=O)O)nc2c1)c1cccc(-c2ccccc2)c1` [compound 4, (S)-5-{7-[1-(biphenyl-3-yl)ethylcarbamoyl]-3-[4-(trifluoromethyl)phenyl]quinoxalin-2-yl}pentanoic Acid] it is 2.1 to 20 nM; for `O=C(O)CCCCc1nc2cc(C(=O)C3CC3)ccc2nc1-c1ccc(F)cc1` [compound 5, 5-(7-(cyclopropanecarbonyl)-3-(4-fluorophenyl)quinoxalin-2-yl)pentanoic acid] it is 0.1 to 2 nM. The same measure, in the same setting: the figure for `CCC(=O)c1ccc2nc(-c3ccccc3)c(CCCCC(=O)O)nc2c1` [compound 6, 7-(1-oxopropyl)-3-phenyl-2-quinoxalinepentanoic acid] is 0.1 to 2 nM. Same read-out and setting: then `CNC(=O)c1ccc2nc(-c3ccc(F)cc3)c(CCCCC(=O)O)nc2c1` [compound 7, 3-(4-fluorophenyl)-7-[(methylamino)carbonyl]-2-quinoxalinepentanoic acid], with 2.1 to 20 nM. As to `O=C(O)CCCCc1nc2ccc(C(=O)NCc3cccc(Cl)c3)cc2nc1-c1ccccc1` [compound 8], the Ki was in the range of 20.1 to 200 nM.

In turn, `COC(=O)c1ccc2nc(-c3ccccc3)c(OCCCC(=O)O)nc2c1` [compound 9, 4-{[7-(Methoxycarbonyl)-3-phenylquinoxalin-2-yl]oxy}butanoic Acid] yielded a Ki of 2.1 to 20 nM. Same read-out and setting: then `O=C(O)CCCOc1nc2cc(C(=O)NCc3cccnc3)ccc2nc1-c1ccccc1` [compound 10, 4-({3-Phenyl-7-[(pyridin-3-ylmethyl)carbamoyl]quinoxalin-2-yl}oxy)butanoic Acid], with 2.1 to 20 nM; and `O=C(O)CCCCc1nc2cc(NC(=O)Cc3ccc(Cl)c(Cl)c3)ccc2nc1-c1ccccc1` [compound 11], with 20.1 to 200 nM. `O=C(O)CCCCc1nc2cc(NS(=O)(=O)Cc3ccccc3)ccc2nc1-c1ccccc1` [compound 12, 5-{7-[(benzylsulfonyl)amino]-3-phenylquinoxalin-2-yl}pentanoic Acid] displayed a Ki of 201 to 700 nM. Compound `COC(=O)c1cnc2nc(-c3ccccc3)c(CCCCC(=O)O)nc2c1` [compound 13, 5-[7-(Methoxycarbonyl)-3-phenylpyrido[2,3-b]pyrazin-2-yl]pentanoic Acid] registered a Ki of 20.1 to 200 nM.

The same assay, now with this note: [3H]PGD2 binding, values in text.
Regarding `COc1ccc(-c2nc3ccc(C(=O)N4CCC(c5ccccc5)CC4)cc3nc2CCCCC(=O)O)cc1` [26o, 3-(4-methoxyphenyl)-7-[(4-phenyl-1-piperidinyl)carbonyl]-2-quinoxalinepentanoic acid], the affinity corresponds to a Ki of 1.4 nM. On the same count and under the same terms, then `O=C(O)CCCNc1nc2cc(C(=O)N3CCN(c4ccc(F)cc4)CC3)ccc2nc1-c1ccccc1` [44H, 4-((7-(4-(4-fluorophenyl)piperazine-1-carbonyl)-3-phenylquinoxalin-2-yl)amino)butanoic acid], with 3.1 nM. In the case of `O=C(O)CCCCc1nc2cc(C(=O)C3CC3)ccc2nc1-c1cccc(F)c1` [compound 3, 5-[7-(Cyclopropanecarbonyl)-3-(3-fluorophenyl)quinoxalin-2-yl]pentanoic Acid], the Ki is 3.2 nM.
